Reference: US8008000B2, “Viral variants detection and application” (priority 2003, dated 2011)
“Also recorded” adds a separate entry of the source. Counter-ions that a name gives are not always drawn.

Experiments:
HBV [1] = assay: Response of Patient E (chronic HBV infection) to treatment; type: in vivo, Hepatitis B virus; details: previously treated with lamivudine
Excerpt: Reference herein to “decreased” or “reduced” in relation to sensitivity to ADV and/or LMV and/or FTC and/or TFV includes and encompasses a complete or substantial resistance to the nucleoside or nucleotide analog or other anti-HBV agents as well as partial resistance and includes a replication rate or replication efficiency which is more than a wild-type in the presence of a nucleoside or nucleotide analog or other anti-HBV agents. In one aspects this is conveniently measured by an increase in viral load during treatment, or alternatively, there is no substantial decrease in HBV DNA viral load from pretreatment HBV DNA levels during treatment (i.e., non-response to treatment).

HBV [2] = details: 30 mg daily dose, over 12 weeks, phase II studies; cited from earlier work
HBV [3] = assay: HBV viral load in Patient A during ADV therapy; type: in vivo, Hepatitis B virus; details: Patient A on ADV treatment
Excerpt: Patient A: During ADV treatment, unique HBV mutations were detected by sequencing (Table 4). This includes the unique mutation at rtT38K, and rtA181V. A number of other changes were also detected in the polymerase rtR55H and in the overlapping envelope gene (Table 4, FIGS. 4, 5 and 6). The changes in the HBsAg include sQ30K, sE44G, sA47T, sI126T, sA159V and sL173F. These unique changes were compared to reference sequences from each of the seven genotypes A-G as well as a consensus sequence from pretreatment samples to determine unique changes
Hepatitis B surface antigen (HBsAg), hepatitis B e antigen (HBeAg), anti-HBe and hepatitis B core antigen (HBcAg) specific IgG and IgM were measured using commercially available immunoassays (Abbott Laboratories, North Chicago, Ill., USA). Hepatitis B viral DNA levels were measured using a capture hybridization assay according to the manufacturer's directions (Digene Hybrid Capture II, Digene Diagnostics Inc., Beltsville, Md.). The manufacturers stated cut-off for detecting HBV viremia in clinical specimens was 0.7×10^6 copies/ml or 2.5 pg/ml, [Hendricks et al., Am J Clin Pathol 104: 537-46, 1995]. HBV DNA levels can also be quantitated using other commercial kits such as Cobas amplification HBV monitor kit (Roche).

Structure (SMILES) | response to treatment (HBV [1]) | mean decrease in viremia (HBV [2]) | HBV viral load (HBV [3]; 8 Jul. 2003) | HBV viral load (HBV [3]; 14 Jan. 2003) | HBV viral load (HBV [3]; 22 Oct. 2002)
CC(C)(C)C(=O)OCOP(=O)(COCCn1cnc2c(N)ncnc21)OCOC(=O)C(C)(C)C [ADV, adefovir dipivoxil] | did not respond; also recorded: nonresponder | 4 log10 | 7.92E+07 | 1.21E+09 | 8.77E+06
CC(C)OC(=O)OCOP(=O)(CO[C@H](C)Cn1cnc2c(N)ncnc21)OCOC(=O)OC(C)C [TFV, tenofovir disoproxil fumarate] | responded |  |  |  | 
